Assay results published in patent US9434692B2, “Pyrazole derivatives as modulators of the 5-HT2A serotonin receptor useful for the treatment of disorders related thereto” (Arena Pharmaceuticals, Inc., priority 2006, dated 2016).

Assays:
normal volunteers = assay: Afternoon nap model of insomnia in normal volunteers; type: in vivo, human
Excerpt: APD125, a potent and selective 5-HT2A serotonin receptor inverse agonist is a member of the genus disclosed in the European Patent EP1558582. […] Sleep onset latency was not decreased by APD125. In the afternoon nap model, APD125 decreased microarousals, the number of sleep stage shifts, and number of awakenings after sleep onset.

healthy adults = assay: Phase 1 trials, waking EEG; type: in vivo, human
diabetic rats = conditions: cited from earlier work; for reduction in saphenous sensory conduction velocity: 14.9% reduction in diabetic rats; for correction of sciatic motor conduction deficit: 19.8% deficit in diabetic rats, range over all three drugs; for reduction in sciatic endoneurial blood flow: 44.7% reduction in diabetic rats
[1] = tested on: DOI-induced hypolocomotion; assay: Attenuation of DOI-induced hypolocomotion in rats; type: in vivo, Sprague-Dawley rats; conditions: compound 1-10 mg/kg p.o., DOI 1 mg/kg s.c.
Experimental: In this example, compounds of the invention were tested for inverse agonist activity by determining whether these compounds could attenuate DOI-induced hypolocomotion in rats in a novel environment. DOI is a potent 5-HT2A/2C receptor agonist that crosses the blood-brain barrier. The standard protocol used is described briefly below.
Male Sprague-Dawley rats weighing between 200-350 g were used for all tests. Rats were housed three to four per cage.
(R)-DOI HCl (C11H16INO2.HCl) was obtained from Sigma-Aldrich, and was dissolved in 0.9% saline. Compounds of the invention were synthesized at Arena Pharmaceuticals Inc., San Diego, Calif., and were dissolved in 100% PEG400. DOI was injected s.c. in a volume of 1 mL/kg, while compounds of the invention were administered p.o. in a volume of 1 mL/kg.
The “Motor Monitor” (Hamilton-Kinder, Poway, Calif.) was used for all activity measurement. This apparatus recorded rears using infrared photobeams. […]
In determining the effects of compounds of the invention on DOI-induced hypoactivity, animals were first injected with vehicle or the compound of the invention (1-10 mg/kg) in their home cages. […] Ten minutes after DOI administration, animals were placed into the activity apparatus and rearing activity was measured for 10 min.
Results (total rears over 10 minutes) were analyzed by t-test. […]

[2] = biological target: human 5-HT2A serotonin receptor (Homo sapiens (Human), UniProt P28223); assay: [125I]DOI radioligand binding assay; conditions: 0.5 nM [125I]DOI, COS7 membranes, recombinant human 5-HT2A
Experimental: Compounds of the invention were tested for their ability to bind to a 5-HT2A serotonin receptor clone membrane preparation using a radioligand binding assay. Briefly, COS cells were transiently transfected with a pCMV expression vector containing a human 5-HT2A receptor (for the sequence of the receptor see U.S. Pat. No. 6,541,209, SEQ ID NO:24).
COS7 cells transfected with recombinant human 5-HT2A serotonin receptors were cultured for 48 h post transfection, collected, washed with ice-cold phosphate buffered saline, pH 7.4 (PBS), and then centrifuged at 48,000 g for 20 min at 4° C. The cell pellet was then resuspended in wash buffer containing 20 mM HEPES pH 7.4 and 0.1 mM EDTA, homogenized on ice using a Brinkman polytron, and recentrifuged at 48,000 g for 20 min at 4° C. The resultant pellet was then resuspended in 20 mM HEPES, pH 7.4, homogenized on ice, and centrifuged (48,000 g for 20 min at 4° C.). Crude membrane pellets were stored at −80° C. until used for radioligand binding assays.
Radioligand binding assays for human 5-HT2A serotonin receptor was conducted using the 5-HT2 agonist [^125I]DOI as radioligand. To define nonspecific binding, 10 μM DOI was used for all assays. For competitive binding studies, 0.5 nM [^125I]DOI was used and compounds were assayed over a range of 0.01 nM to 10 μM. Assays were conducted in a total volume of 200 μl in 96-well Perkin Elmer GF/C filter plates in assay buffer (50 mM Tris-HCl, pH 7.4, 0.5 mM EDTA, 5 mM MgCl2, and 10 μM pargyline). Assay incubations were performed for 60 min at room temperature and were terminated by rapid filtration under vacuum pressure of the reaction mixture over Whatman GF/C glass fiber filters presoaked in 0.5% PEI using a Brandell cell harvester. Filters were then washed several times with ice-cold wash buffer (50 mM Tris-HCl, pH 7.4). Plates were then dried at room temperature and counted in a Wallac MicroBeta scintillation counter.

[3] = tested on: DOCA-salt induced hypertension; conditions: rats; cited from earlier work
glaucoma patients = conditions: cited from earlier work
[4] = tested on: spontaneously hypertensive rats; conditions: cited from earlier work
JC virus = conditions: cited from earlier work
heatstroke = conditions: in vivo; cited from earlier work
pain in rats = conditions: cited from earlier work
[5] = tested on: lower back pain, leg pain and numbness; conditions: humans, lumbar disc herniation; cited from earlier work
diabetic nephropathy = conditions: 24 months of treatment; cited from earlier work

## COc1ccc(NC(=O)Nc2ccc(F)cc2F)cc1-c1c(Br)cnn1C [APD125]
Normal volunteers; human, in vivo
  REM sleep: at the expense of REM sleep
  microarousals: decreased
  number of awakenings after sleep onset: decreased
  number of sleep stage shifts: decreased
  sleep onset latency: not decreased
Normal volunteers; primarily during the early part of sleep
  slow wave sleep and associated parameters: increased slow wave sleep and associated parameters in a dose-dependent manner
Healthy adults
  dose of maximal effects on waking EEG: 40 to 80 mg
  effects on waking EEG: vigilance-lowering effects
Healthy adults; waking EEG
  time of peak effects after dosing: 24 h

## O=CN1CCC(C(=O)NCCN2CCC(=C3c4ccccc4C=Cc4ccccc43)CC2)CC1 [AT-1015]
Diabetic rats
  reduction in saphenous sensory conduction velocity: completely reversed
  correction of sciatic motor conduction deficit: 82.6-99.7%
  reduction in sciatic endoneurial blood flow: completely reversed

## CCn1cc(Cl)c(C(=O)N2CCN(CC(=O)c3ccc(F)cc3)CC2)n1 [Compound 7, 2-[4-(4-Chloro-1-ethyl-1H-pyrazole-3-carbonyl)-piperazin-1-yl]-1-(4-fluoro-phenyl)-ethanone]
[1]
  attenuation of DOI-induced hypolocomotion (total rears over 10 minutes): attenuated DOI-induced hypolocomotion

## Cn1cc(Cl)c(C(=O)N2CCN(CCc3ccccc3F)CC2)n1 [Compound 24, (4-Chloro-1-methyl-1H-pyrazol-3-yl)-{4-[2-(2-fluoro-phenyl)-ethyl]-piperazin-1-yl}-methanone]
[2]
  IC50: 36 nM

## Cn1nc(C(=O)N2CCN(CC(=O)c3ccc(F)cc3)CC2)cc1C(F)(F)F [Compound 35, 1-(4-Fluoro-phenyl)-2-[4-(1-methyl-5-trifluoromethyl-1H-pyrazole-3-carbonyl)-piperazin-1-yl]-ethanone]
[1]
  attenuation of DOI-induced hypolocomotion (total rears over 10 minutes): attenuated DOI-induced hypolocomotion

## Cc1[nH]nc(C(=O)N2CCN(CC(=O)c3ccc(F)cc3)CC2)c1F [Compound 42, 2-[4-(4-Fluoro-5-methyl-1H-pyrazole-3-carbonyl)-piperazin-1-yl]-1-(4-fluoro-phenyl)-ethanone]
[2]
  IC50: 11 nM

## Cc1[nH]nc(C(=O)N2CCN(CC(=O)c3ccc(F)cc3)CC2)c1Br [Compound 52, 2-[4-(4-Bromo-5-methyl-1H-pyrazole-3-carbonyl)-piperazin-1-yl]-1-(4-fluoro-phenyl)-ethanone]
[2]
  IC50: 4.6 nM

## Cn1nc(C(=O)N2CCN(CC(=O)c3ccc(F)cc3)CC2)cc1-c1ccco1 [Compound 66, 1-(4-Fluoro-phenyl)-2-[4-(5-furan-2-yl-1-methyl-1H-pyrazole-3-carbonyl)-piperazin-1-yl]-ethanone]
[2]
  IC50: 4.8 nM

## CN1CCN2c3ccccc3Cc3ccccc3C2C1 (centres unmarked) [Mainserin]
[3]
  DOCA-salt induced hypertension: prevent DOCA-salt induced hypertension

## O=C(c1ccc(F)cc1)C1CCN(CCn2c(=O)[nH]c3ccccc3c2=O)CC1 [ketanserin]
Glaucoma patients
  intra ocular pressure (IOP): significantly lower IOP
[4]
  blood pressure: stabilize blood pressure
JC virus
  JC virus infection of human glial cells: inhibited JC virus infection of human glial cells
heatstroke
  protection during heatstroke: protect against circulatory shocks, intracranial hypertension, and cerebral ischemia during heatstroke

## Cc1nc2sccn2c(=O)c1CCN1CCC(=C(c2ccc(F)cc2)c2ccc(F)cc2)CC1 [ritanserin]
Diabetic rats
  reduction in saphenous sensory conduction velocity: completely reversed
  correction of sciatic motor conduction deficit: 82.6-99.7%
  reduction in sciatic endoneurial blood flow: completely reversed
JC virus
  JC virus infection of human glial cells: inhibited JC virus infection of human glial cells

## COc1cccc(CCc2ccccc2OCC(CN(C)C)OC(=O)CCC(=O)O)c1 (centres unmarked) [sarpogrelate]
Glaucoma patients
  intra ocular pressure (IOP): significantly lower IOP
Pain in rats; intraperitoneal administration
  analgesic effect on thermal induced pain: significant analgesic effect
Pain in rats; intrathecal or intraperitoneal administration
  analgesic effect on inflammatory pain: significant analgesic effect
Diabetic rats
  reduction in saphenous sensory conduction velocity: completely reversed
  correction of sciatic motor conduction deficit: 82.6-99.7%
  reduction in sciatic endoneurial blood flow: completely reversed
[5]
  treatment of lower back pain, leg pain and numbness associated with sciatica: effective treatment
Diabetic nephropathy
  urinary albumin excretion level: significantly reduced
